According to article PMC12361428 (Nature Communications, 2025):
Residue numbers refer to the chain shown, from its start. Where “and” joins values, the source holds several entries; their conditions need not be identical. Equal entries are not always repeated. Entries after “also recorded” stand apart in the source; their conditions may differ.

Tests used:
A3AR T94A^3.36 = target: T1, A3AR T94A^3.36 (Homo sapiens, UniProt P0DMS8, T94A); experiment: Gαi1 activation, TruPath BRET assay in HEK293a cells; type: cell-based
T1 construct: expressed in transfected cells; host or cells: HEK293a
T1 sequence (P0DMS8 whole entry T94A): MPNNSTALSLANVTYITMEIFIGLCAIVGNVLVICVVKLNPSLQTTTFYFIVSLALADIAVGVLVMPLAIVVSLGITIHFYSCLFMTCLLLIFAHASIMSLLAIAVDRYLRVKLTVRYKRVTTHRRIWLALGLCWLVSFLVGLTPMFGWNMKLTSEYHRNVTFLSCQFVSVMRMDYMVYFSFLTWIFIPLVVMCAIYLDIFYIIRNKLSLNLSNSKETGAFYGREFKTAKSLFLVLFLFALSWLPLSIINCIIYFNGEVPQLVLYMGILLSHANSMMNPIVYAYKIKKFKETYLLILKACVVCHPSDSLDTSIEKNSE

A3AR H95F^3.37 = target: T2, A3AR H95F^3.37 (Homo sapiens, UniProt P0DMS8, H95F); experiment: as above; type: cell-based
T2 construct: expressed in transfected cells; host or cells: HEK293a
T2 sequence (P0DMS8 1-318 H95F): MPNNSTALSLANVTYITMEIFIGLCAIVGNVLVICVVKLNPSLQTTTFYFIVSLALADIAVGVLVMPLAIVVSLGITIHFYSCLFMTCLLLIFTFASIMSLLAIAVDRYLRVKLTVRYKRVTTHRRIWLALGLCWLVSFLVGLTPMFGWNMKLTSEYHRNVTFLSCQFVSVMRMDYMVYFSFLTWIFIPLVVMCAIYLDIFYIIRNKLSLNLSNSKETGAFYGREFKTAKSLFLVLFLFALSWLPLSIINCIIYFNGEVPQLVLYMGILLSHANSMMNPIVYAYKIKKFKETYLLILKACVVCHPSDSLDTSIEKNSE

A3AR V169E^45.53 = target: T3, A3AR V169E^45.53 (Homo sapiens, UniProt P0DMS8, V169E); experiment: as above; type: cell-based
T3 construct: expressed in transfected cells; host or cells: HEK293a
T3 sequence (P0DMS8 whole entry V169E): as the sequence (P0DMS8 whole entry T94A) above, with A94T, V169E counted along it

A3AR N250A^6.55 = target: T4, A3AR N250A^6.55 (Homo sapiens, UniProt P0DMS8, N250A); experiment: as above; type: cell-based
T4 construct: expressed in transfected cells; host or cells: HEK293a
T4 sequence (P0DMS8 1-318 N250A): T2 sequence (P0DMS8 1-318 H95F) with F95H, N250A

A3AR H272A^7.43 = target: T5, A3AR H272A^7.43 (Homo sapiens, UniProt P0DMS8, H272A); experiment: as above; type: cell-based
T5 construct: expressed in transfected cells; host or cells: HEK293a
T5 sequence (P0DMS8 1-318 H272A): T2 sequence (P0DMS8 1-318 H95F) with F95H, H272A

A3AR H95A^3.37 = A3AR H95A^3.37 (Homo sapiens, UniProt P0DMS8, H95A); experiment: as above
A3AR H95A^3.37, sequence (P0DMS8 whole entry H95A): as the sequence (P0DMS8 whole entry T94A) above, with A94T, H95A counted along it

A3AR-BRIL = target: T6, A3AR-BRIL (Homo sapiens, UniProt P0DMS8); experiment: NanoBRET competition binding vs XAC-630; conditions: for XAC-630 NanoBRET binding, normalised (Figure S2H), individual replicates: A3AR-BRIL
T6 sequence (P0DMS8 1-318): T2 sequence (P0DMS8 1-318 H95F) with F95H

A3AR-BRIL-S97R = target: T7, A3AR-BRIL-S97R (Homo sapiens, UniProt P0DMS8, N160A/S97R, form not given); experiment: NanoBRET competition binding vs XAC-630; conditions: for XAC-630 NanoBRET binding, normalised (Figure S2H), individual replicates: A3AR-BRIL-S97R
T7 sequence (P0DMS8 1-318 S97R/N160A): T2 sequence (P0DMS8 1-318 H95F) with F95H, S97R, N160A

[1] = system: Nluc-tagged hA3AR-BRIL-S97R; experiment: NanoBRET washout (irreversible binding) assay vs XAC-630

For `Nc1ncnc2c1ncn2[C@@H]1O[C@H](CO)[C@@H](O)[C@H]1O` [Adenosine, adenosine], the “log τ (efficacy, operational model, corrected for receptor expression)” value (“log τ” for short) (A3AR T94A^3.36) was 0.8 ± 0.09, the “∆∆BRET Emax” value (A3AR T94A^3.36) was 0.49 ± 0.04 and the “log τ” value (A3AR H95F^3.37) was “N.R”. For the same compound, the “∆∆BRET Emax” value (A3AR H95F^3.37) was “N.R”, the “Gαi1 activation response (Figure 7F), individual replicates” value (from here on “Gαi1 activation response (Figure 7F)”) (A3AR H95F^3.37; log [agonist] -3) was 0.03876 and 0.1313 and 0.08684 and the “Gαi1 activation response (Figure 7F)” value (A3AR H95F^3.37; log [agonist] -4) was 0.03491 and 0.05099 and 0.06294. The “Gαi1 activation response (Figure 7F)” value (A3AR H95F^3.37; log [agonist] -5) was 0.01638 and 0.04515 and 0.03044, the “Gαi1 activation response (Figure 7F)” value (A3AR H95F^3.37; log [agonist] -6) was 0.01795 and 0.02273 and 0.02037 and the “Gαi1 activation response (Figure 7F)” value (A3AR H95F^3.37; log [agonist] -7) was 0.02917 and 0.01651 and 0.04473. For the same compound, the “Gαi1 activation response (Figure 7F)” value (A3AR H95F^3.37; log [agonist] -8) was 0.01844 and 0.06153 and 0.04217, the “Gαi1 activation response (Figure 7F)” value (A3AR H95F^3.37; log [agonist] -9) was 0.02564 and 0.03775 and 0.0773 and the “log τ” value (A3AR V169E^45.53) was 1.6 ± 0.1. For the same compound, the “∆∆BRET Emax” value (A3AR V169E^45.53) was 0.67 ± 0.02, the “log τ” value (A3AR N250A^6.55) was “N.R” and the “∆∆BRET Emax” value (A3AR N250A^6.55) was “N.R”. The “Gαi1 activation response (Figure 7F)” value (A3AR N250A^6.55; log [agonist] -3) was 0.1982 and 0.05834 and 0.1787, the “Gαi1 activation response (Figure 7F)” value (A3AR N250A^6.55; log [agonist] -4) was 0.07983 and 0.02674 and 0.09536 and the “Gαi1 activation response (Figure 7F)” value (A3AR N250A^6.55; log [agonist] -6) was 0.1133 and 0.01975. For the same compound, the “Gαi1 activation response (Figure 7F)” value (A3AR N250A^6.55; log [agonist] -7) was 0.04263 and 0.06697 and 0.05413, the “Gαi1 activation response (Figure 7F)” value (A3AR N250A^6.55; log [agonist] -8) was 0.04211 and 0.09403 and 0.02948 and the “Gαi1 activation response (Figure 7F)” value (A3AR N250A^6.55; log [agonist] -9) was 0.09604 and 0.06365 and 0.0751. For the same compound, the “log τ” value (A3AR H272A^7.43) was “N.R”, the “∆∆BRET Emax” value (A3AR H272A^7.43) was “N.R” and the “Gαi1 activation response (Figure 7F)” value (A3AR H272A^7.43; log [agonist] -3) was 0.105 and 0.09941. The “Gαi1 activation response (Figure 7F)” value (A3AR H272A^7.43; log [agonist] -4) was 0.06736 and 0.02567 and 0.03084, the “Gαi1 activation response (Figure 7F)” value (A3AR H272A^7.43; log [agonist] -5) was 0.05631 and 0.02851 and 0.01939 and the “Gαi1 activation response (Figure 7F)” value (A3AR H272A^7.43; log [agonist] -6) was 0.03915 and 0.06464 and 0.04347. For the same compound, the “Gαi1 activation response (Figure 7F)” value (A3AR H272A^7.43; log [agonist] -7) was 0.04202 and 0.01796 and 0.03024, the “Gαi1 activation response (Figure 7F)” value (A3AR H272A^7.43; log [agonist] -8) was 0.03672 and 0.03614 and 0.07396 and the “Gαi1 activation response (Figure 7F)” value (A3AR H272A^7.43; log [agonist] -9) was 0.03473 and 0.04344 and 0.05169. The “log τ” value (A3AR H95A^3.37) was 0.3 ± 0.3 and the “∆∆BRET Emax” value (A3AR H95A^3.37) was 0.63 ± 0.12.
For `CCCn1c(=O)c2c(nc3cc(OC)ccn32)n(CCCCNC(=O)c2ccc(S(=O)(=O)F)cc2)c1=O` [LUF7602], the “pKi Mean (Figure S2H)” value (A3AR-BRIL; BRIL, n 3) was 6.94, the “XAC-630 NanoBRET binding, normalised (Figure S2H), individual replicates” value (shortened to “XAC-630 NanoBRET binding, normalised”) (A3AR-BRIL; log LUF7602 -5) was 0 and the “XAC-630 NanoBRET binding, normalised” value (A3AR-BRIL; log LUF7602 -6) was 22.1463 and 17.4094 and 21.7431. The “XAC-630 NanoBRET binding, normalised” value (A3AR-BRIL; log LUF7602 -7) was 61.493 and 91.0533 and 82.952, the “XAC-630 NanoBRET binding, normalised” value (A3AR-BRIL; log LUF7602 -8) was 66.0931 and 109.671 and 102.784 and the “XAC-630 NanoBRET binding, normalised” value (A3AR-BRIL; log LUF7602 -9) was 71.5361 and 107.819 and 104.301. For the same compound, the “XAC-630 NanoBRET binding, normalised” value (A3AR-BRIL; log LUF7602 -10) was 72.9226 and 106.236 and 100.479, the “pKi Mean (Figure S2H)” value (A3AR-BRIL-S97R; BRIL-S97R, n 3) was 7.024 and the “XAC-630 NanoBRET binding, normalised” value (A3AR-BRIL-S97R; log LUF7602 -5) was 0. The “XAC-630 NanoBRET binding, normalised” value (A3AR-BRIL-S97R; log LUF7602 -6) was 19.3899 and 25.983 and 15.2236, the “XAC-630 NanoBRET binding, normalised” value (A3AR-BRIL-S97R; log LUF7602 -7) was 80.7723 and 57.132 and 87.3086 and the “XAC-630 NanoBRET binding, normalised” value (A3AR-BRIL-S97R; log LUF7602 -8) was 99.2468 and 73.5169 and 111.113. For the same compound, the “XAC-630 NanoBRET binding, normalised” value (A3AR-BRIL-S97R; log LUF7602 -9) was 98.8814 and 81.6512 and 110.04, the “XAC-630 NanoBRET binding, normalised” value (A3AR-BRIL-S97R; log LUF7602 -10) was 102.286 and 79.8771 and 109.058 and the “inhibition of XAC-630 binding after 4x washout” value ([1]; 10 μM, 4 h, 4 washing steps) was “wash-resistant inhibition; also recorded: retained inhibition”. The “rebinding of XAC-630 in the washout experiments” value ([1]; 10 μM, 4 h, 4 washing steps) was ~ 15%, the “NanoBRET washout assay, normalised signal (Figure S2G), individual replicates” value ([1]; 4 x Wash) was 12.3969 and 12.724 and 15.9645 and 7.178 and the “NanoBRET washout assay, normalised signal (Figure S2G), individual replicates” value ([1]; Control (no wash)) was 1.693 and 0.891 and -0.3357 and 2.202.
